Results on three molecules are retold here after patent US20060045906A1, “Compositions and methods for activating protein synthesis and deactivating catabolic processes in skeletal muscle” (priority 2004, published 2006).

The subject of one data set is serum insulin. In words: Serum insulin concentration and area under the concentration time curve after oral challenge (nasogastric) in healthy male volunteers. The format is in vivo, human. On the procedure: (§1) Measurement of creatine levels in the plasma preferably involves removing venous blood from the dorsal surface of a heated hand immediately before and 20, 40, and 60 min after the ingestion of a supplement. In addition, urine may be collected before and on the day of ingestion of a supplement. Plasma and urine creatine may be measured using high performance liquid chromatography and serum insulin was measured using a radioimmunoassay technique, an example of which is described in U.S. Pat. No. 5,968,900, which is fully incorporated herein by reference.
Aim: The aim of this study was to identify a supplement that would optimize the augmentation of Cr retention after its supplementation, by increasing the insulinotropic effect, whilst consuming a lower carbohydrate load.
Study design: Randomized, double-blind, placebo controlled, cross-over design.
Volunteers: 7 healthy male volunteers. All volunteers were eligible to participate after satisfactory results from the medical screening.
(§2) Protocol: The volunteers were required to attend to the lab for 3 trials. Each consisted of an afternoon arm, and a morning arm. Each arm lasted for approximately 4 hours. The volunteers were asked to relax on a bed. A baseline blood sample was taken. Each solution was administered via a nasogastric tube (mean time of administration was approximately 7 minutes). Half-way through the administration, the stop clock was started. After the three hour protocol, a second solution was administered. The third solution was administered in the following morning arm of the trial. Each trial was separated by at least 12 days.
(§3) Each solution was administered via a nasogastric tube three times over 24 hours. A total amount of 15 g or Cr was administered.
Blood sampling: Blood samples were collected for three hours after administration of the solution. Eleven blood samples obtained (including baseline sample). For the first hour after administration of the solution, a blood sample was obtained at 15 minute intervals. During the second and third hour of sampling, the intervals were increased to 20 minutes. Approximately 3 ml of blood was transferred to a lithium heparin containing tube and a further 3 ml were allowed to clot for plasma Cr and creatinine (Crn), and serum insulin analysis respectively.
Statistical analysis: A two-way repeated measure ANOVA statistical test was used. Significance was set at p<0.05. When a significant difference was observed, Fisher's post hoc analysis was performed in order to locate the difference. All individual results are included in the appendix.

The conditions of data set [1]: human, in vivo. On the procedure:
as §1, §2, §3
Blood sampling: Blood samples were collected for three hours after administration of the solution. […]

Data set [2] is described as follows: Urinary creatine excretion (24 h collections: 0-24, 24-48, 0-48 h) after administration of the solutions. The format is in vivo, human. Particulars: p<0.05. On the procedure: as §1
Urinary Creatine Content:
Three 24 h hour urinary collections were obtained from each volunteer for each arm of the study. The first collection (baseline) was completed prior to administration of the solution. The second collection (0-24 h) was initiated immediately after the administration of the first solution, until 24 h post administration. […] The volume of the urine excreted was recorded and a 5 ml sample was frozen at −20° C. until analysis. The samples were analyzed for Cr and Crn.
To calculate the total creatine (TCr) the Cr and Crn were added together. The TCr increase was calculated by subtracting the baseline TCr from the 0-24 h excretion and/or the 24-48 h excretion. The 0-48 h content was calculated by adding the 0-24 h TCr with the 24-48 h TCr increase in excretion. […]

The test system of data set [3] is skeletal muscle total creatine. Particulars: cited from earlier work.

“And” between values parts separate entries of the source, which are not always exact repeats. Equal values may be shown once.

As for `CN(CC(=O)O)C(=N)N` [C, creatine], in the data set on serum insulin (FIG. 1, first oral challenge, from 15-140 min), the “serum insulin concentration compared to PAC” value is on record as “significantly lower”. Further, in the data set on serum insulin (FIG. 1, first oral challenge, from 15-160 min), the “serum insulin concentration compared to CHO” value is recorded as “significantly lower”. For the same molecule, the “serum insulin concentration compared to CHO and PAC” value in the data set on serum insulin (FIG. 2, third oral challenge, from 15-160 min) is listed as “significantly lower”. For the same molecule, the “serum insulin AUC compared to CHO and PAC” value in the data set on serum insulin (FIG. 3, 80 min following the first oral challenge, p=0.02) is “significantly lower”; with serum insulin (FIG. 4, 180 min following the first oral challenge, p=0.015), “significantly lower”; with serum insulin (FIG. 5, 80 min following the third oral challenge, p<0.001), “significantly lower”; with serum insulin (FIG. 6, 180 min following the first oral challenge (so in the source), p<0.001) it was “significantly lower”. Further, the “insulin area under the time curve response” value in the data set with serum insulin (first oral challenge, 0-80 min (as headed), individual subject) was −235 mU/l/min and −127 mU/l/min and −112 mU/l/min and −166 mU/l/min and −146 mU/l/min and −714 mU/l/min and −566 mU/l/min; in the data set on serum insulin (first oral challenge, 0-80 min (as headed), mean of 7 subjects), −295 mU/l/min; in the data set with serum insulin (first oral challenge, 0-180 min (as headed), individual subject), −32 mU/l/min and −48 mU/l/min and −50 mU/l/min and 21 mU/l/min and −11 mU/l/min and −299 mU/l/min and −186 mU/l/min; in the data set with serum insulin (first oral challenge, 0-180 min (as headed), mean of 7 subjects) it was −86 mU/l/min; in the data set on serum insulin (third oral challenge, 0-80 min, individual subject), 10 mU/l/min (2×) and −7 mU/l/min and −23 mU/l/min and 132 mU/l/min and −34 mU/l/min and −18 mU/l/min; in the data set on serum insulin (third oral challenge, 0-80 min, mean of 7 subjects), 10 mU/l/min. Moreover, the “insulin area under the time curve response” value in the data set with serum insulin (third oral challenge, 0-180 min, individual subject) was 274 mU/l/min (2×) and −63 mU/l/min and −109 mU/l/min and 195 mU/l/min and 1406 mU/l/min and −99 mU/l/min; in the data set with serum insulin (third oral challenge, 0-180 min, mean of 7 subjects), 268 mU/l/min. For the same molecule, the serum insulin concentration is 9.02 mU/l and 7.85 mU/l and 9.58 mU/l and 10.16 mU/l and 9.61 mU/l and 9.34 mU/l and 11.85 mU/l in the data set with serum insulin (first oral challenge, 45 min, individual subject); 9.63 mU/l in the data set on serum insulin (first oral challenge, 45 min, mean of 7 subjects); 9.17 mU/l and 7.54 mU/l and 9.74 mU/l and 8.51 mU/l in the data set with serum insulin (first oral challenge, 60 min, individual subject); 8.91 mU/l (2×) and 8.31 mU/l and 10.38 mU/l and 9.64 mU/l and 10.31 mU/l and 8.65 mU/l in the data set on serum insulin (third oral challenge, 0 min, individual subject); 9.30 mU/l with serum insulin (third oral challenge, 0 min, mean of 7 subjects); 8.94 mU/l (2×) and 7.78 mU/l and 10.23 mU/l and 9.84 mU/l and 10.29 mU/l and 11.08 mU/l in the data set on serum insulin (third oral challenge, 15 min, individual subject). The serum insulin concentration is 9.59 mU/l in the data set on serum insulin (third oral challenge, 15 min, mean of 7 subjects); 9.44 mU/l (2×) and 7.90 mU/l and 10.92 mU/l and 10.89 mU/l and 9.80 mU/l and 11.61 mU/l with serum insulin (third oral challenge, 30 min, individual subject); 10.00 mU/l in the data set on serum insulin (third oral challenge, 30 min, mean of 7 subjects); 8.87 mU/l (2×) and 7.24 mU/l and 9.56 mU/l and 9.07 mU/l and 10.07 mU/l and 9.32 mU/l in the data set with serum insulin (third oral challenge, 45 min, individual subject); 9.00 mU/l in the data set on serum insulin (third oral challenge, 45 min, mean of 7 subjects); 8.92 mU/l (2×) and 7.99 mU/l and 10.03 mU/l and 8.61 mU/l and 9.69 mU/l and 10.81 mU/l in the data set on serum insulin (third oral challenge, 60 min, individual subject). Also, the serum insulin concentration with serum insulin (third oral challenge, 60 min, mean of 7 subjects) is 9.28 mU/l; with serum insulin (third oral challenge, 80 min, individual subject), 9.06 mU/l (2×) and 8.54 mU/l and 9.79 mU/l and 9.45 mU/l and 10.22 mU/l and 8.93 mU/l; in the data set on serum insulin (third oral challenge, 80 min, mean of 7 subjects) it was 9.29 mU/l; in the data set on serum insulin (third oral challenge, 100 min, individual subject), 8.54 mU/l (2×) and 8.56 mU/l and 9.59 mU/l (2×) and 9.34 mU/l and 9.38 mU/l; in the data set with serum insulin (third oral challenge, 100 min, mean of 7 subjects), 9.08 mU/l; with serum insulin (third oral challenge, 120 min, individual subject), 8.76 mU/l (2×) and 8.20 mU/l and 10.07 mU/l and 8.48 mU/l and 10.27 mU/l and 9.10 mU/l. The serum insulin concentration with serum insulin (third oral challenge, 120 min, mean of 7 subjects) was 9.09 mU/l; in the data set on serum insulin (third oral challenge, 140 min, individual subject), 8.29 mU/l (2×) and 8.44 mU/l and 8.57 mU/l and 8.55 mU/l and 8.56 mU/l and 9.20 mU/l; with serum insulin (third oral challenge, 140 min, mean of 7 subjects), 8.56 mU/l; with serum insulin (third oral challenge, 160 min, individual subject) it was 8.69 mU/l (2×) and 8.34 mU/l and 8.66 mU/l and 10.01 mU/l and 9.02 mU/l and 9.73 mU/l; in the data set with serum insulin (third oral challenge, 160 min, mean of 7 subjects) it was 9.02 mU/l; in the data set on serum insulin (third oral challenge, 180 min, individual subject), 8.58 mU/l (3×) and 8.61 mU/l and 8.56 mU/l and 9.43 mU/l and 9.04 mU/l. The molecule further gave a serum insulin concentration in the data set with serum insulin (third oral challenge, 180 min, mean of 7 subjects) of 8.77 mU/l. The “plasma creatine AUC compared to CHO and PAC” value in data set [1] is reported as “significantly greater”. Also, the “urinary creatine content compared to CHO and PAC” value in data set [2] (FIG. 11, 0-24 h) is listed as “significantly greater”; in data set [2] (FIG. 13, 0-48 h following supplementation) it was “significantly greater”.

Take `CN(CC(=O)O)C(=N)N` [carbohydrate free creatine, creatine]: in data set [3] (5 g creatine four times a day for 5 days), the “increase of total muscle creatine” value is listed as “about 20 mmol/kg dm”.

Take `CN(CC(=O)O)C(=N)N` [creatine, N-methyl-N-guanyl glycine]: the “increase of muscle total creatine content, on average” value in data set [3] (20 g/day for 5 days) was 20%. Further, the “increase in human skeletal muscle total creatine (phosphocreatine and free creatine) stores” value in data set [3] (dietary creatine supplementation) is on record as 20-50%.
